Several values for one entry are separate records, joined by “and”; a condition that tells them apart may be missing. Identical values can stand only once. Toxic doses and inconclusive results are not listed. How the source made its calls: active means survival T/C of 150% or more; inactive means T/C below 125% in these data. Square brackets hold non-standard residues; d marks the D form. Peptide text beside a SMILES is read from it. * marks the point of attachment. ξ: configuration not given here. Hpg = N[CH](C(=O)O)c1ccc(O)cc1; Cbz = O=C(OCc1ccccc1)*; ξI = CCC(C)C(N)C(=O)O
Test system: P388 leukemia ip, CD2F1 mice, survival T/C
Experiment: NCI In Vivo Anticancer Drug Screen. Data for tumor model P388 Leukemia (intraperitoneal) in CD2F1 (CDF1) mice
Details: endpoint: median survival time, higher = longer survival
Procedure, shortened: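 Mice carrying the transplanted tumor received test compound or vehicle. Survival was recorded in each group, and the value is the treated-group measurement divided by that of the vehicle-treated control group.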

[1] = dose: 100.0 mg/kg/injection, schedule: Q01DX001 (ip), vehicle: saline with Tween-80
[2] = dose: 200.0 mg/kg/injection, schedule: Q01DX001 (ip), vehicle: saline with Tween-80
[3] = dose: 400.0 mg/kg/injection, schedule: Q01DX001 (ip), vehicle: saline with Tween-80
[4] = dose: 50.0 mg/kg/injection, schedule: Q01DX009 (ip), vehicle: saline
[5] = dose: 100.0 mg/kg/injection, schedule: Q01DX009 (ip), vehicle: saline
[6] = dose: 60.0 mg/kg/injection, schedule: Q01DX005 (ip), vehicle: saline with Tween-80
[7] = dose: 120.0 mg/kg/injection, schedule: Q01DX005 (ip), vehicle: saline with Tween-80
[8] = dose: 240.0 mg/kg/injection, schedule: Q01DX005 (ip), vehicle: saline with Tween-80
[9] = dose: 100.0 mg/kg/injection, schedule: Q04DX002 (ip), vehicle: saline with Tween-80
[10] = dose: 200.0 mg/kg/injection, schedule: Q04DX002 (ip), vehicle: saline with Tween-80
[11] = dose: 400.0 mg/kg/injection, schedule: Q04DX002 (ip), vehicle: saline with Tween-80
[12] = dose: 50.0 mg/kg/injection, schedule: Q01DX005 (ip), vehicle: saline with Tween-80
[13] = dose: 100.0 mg/kg/injection, schedule: Q01DX005 (ip), vehicle: saline with Tween-80
[14] = dose: 200.0 mg/kg/injection, schedule: Q01DX005 (ip), vehicle: saline with Tween-80
[15] = dose: 100.0 mg/kg/injection, schedule: Q01DX009 (ip), vehicle: saline with Tween-80
[16] = dose: 200.0 mg/kg/injection, schedule: Q01DX009 (ip), vehicle: saline with Tween-80
[17] = dose: 400.0 mg/kg/injection, schedule: Q01DX009 (ip), vehicle: saline with Tween-80
[18] = dose: 50.0 mg/kg/injection, schedule: Q01DX009 (ip), vehicle: saline with Tween-80

Measured: T/C

O=C1OC(=O)C2c3ccccc3C=CC12 (centres undefined)
inactive: dose: 25.0 mg/kg/injection, schedule: Q01DX001 (ip), vehicle: saline with Tween-80 98 % of control | dose: 50.0 mg/kg/injection, schedule: Q01DX001 (ip), vehicle: saline with Tween-80 98 % of control | [1] 104 % of control | [2] 120 % of control | [3] 113 % of control

CC(C)(C)C(C(=O)O)C(=O)O
inactive: dose: 12.5 mg/kg/injection, schedule: Q01DX009 (ip), vehicle: saline 101 % of control | dose: 25.0 mg/kg/injection, schedule: Q01DX009 (ip), vehicle: saline 99 % of control | [4] 96 % of control | [5] 99 % of control

O=C1c2ccccc2C(=O)N1C1Nc2ccccc2N1
inactive: [6] 99 % of control | [7] 99 % of control | [8] 96 % of control

O=[N+]([O-])c1ccc(N=Nc2c(-c3ccccc3)nn(C(=S)S)c2-c2ccccc2)cc1
inactive: [9] 92 % of control | [10] 97 % of control | [11] 101 % of control

CC1=C(C(=O)Nc2ccccc2)C(c2ccccc2)C(C(=O)Nc2ccccc2)=C(C)N1
inactive: [9] 95 % of control | [10] 94 % of control | [11] 94 % of control

COC(=O)c1[nH]c(=O)c(C#N)c(C(=O)OC)c1-c1ccc(F)cc1
inactive: [6] 100 % of control | [7] 92 % of control | [8] 95 % of control

CCC(C)C(NC(=O)CNC(=O)CNC(=O)OCc1ccccc1)C(=O)O (stereo not drawn) (Cbz-Gly-Gly-[ξI]-OH)
inactive: [12] 103 % of control | [13] 100 % of control | [14] 102 % of control

CC1(C)N=C(N)N=C(N)N1c1cccc(OCCCOc2ccccc2)c1
inactive: dose: 12.5 mg/kg/injection, schedule: Q01DX001 (ip), vehicle: Klucel (hydroxypropylcellulose) (HPC) 101 % of control | dose: 25.0 mg/kg/injection, schedule: Q01DX001 (ip), vehicle: Klucel (hydroxypropylcellulose) (HPC) 100 % of control | dose: 50.0 mg/kg/injection, schedule: Q01DX001 (ip), vehicle: Klucel (hydroxypropylcellulose) (HPC) 102 % of control

CS(=O)(=O)O
inactive: [4] 100 % of control | [5] 110 % of control | dose: 200.0 mg/kg/injection, schedule: Q01DX009 (ip), vehicle: saline 108 % of control

CC1CC(C)(C)N=C(CCC2CCCC2=O)O1 (centres undefined)
inactive: [15] 91 % of control | dose: 100.0 mg/kg/injection, schedule: Q04DX003 (ip), vehicle: saline with Tween-80 95 % of control | [16] 100 % of control | dose: 200.0 mg/kg/injection, schedule: Q04DX003 (ip), vehicle: saline with Tween-80 100 % of control | [17] 104 % of control | dose: 400.0 mg/kg/injection, schedule: Q04DX003 (ip), vehicle: saline with Tween-80 104 % of control

C=Cc1c(C)c2[nH]c1=CC1=NC(=CC3=NC(=CC4=C(C)/C(=C\NO)C(=N4)C=2)C(C)=C3CCC(=O)OC)C(CCC(=O)OC)=C1C
inactive: dose: 50.0 mg/kg/injection, schedule: Q01DX005 (ip), vehicle: Klucel (hydroxypropylcellulose) (HPC) 95 % of control | dose: 100.0 mg/kg/injection, schedule: Q01DX005 (ip), vehicle: Klucel (hydroxypropylcellulose) (HPC) 99 % of control | dose: 200.0 mg/kg/injection, schedule: Q01DX005 (ip), vehicle: Klucel (hydroxypropylcellulose) (HPC) 99 % of control

CC(=O)O[C@H]1CC[C@]2(C=O)[C@H]3CC[C@]4(C)[C@@H](C5=CC(=O)OC5)CC[C@]4(O)[C@@H]3CC[C@]2(O)C1
inactive: dose: 12.5 mg/kg/injection, schedule: Q04DX002 (ip), vehicle: saline 94 % of control | dose: 25.0 mg/kg/injection, schedule: Q04DX002 (ip), vehicle: saline 94 % of control | dose: 50.0 mg/kg/injection, schedule: Q04DX002 (ip), vehicle: saline 100 % of control | dose: 100.0 mg/kg/injection, schedule: Q04DX002 (ip), vehicle: saline 91 % of control

O/N=C(/Cc1nc2cc(Cl)c(Cl)cc2nc1C/C(=N/O)c1ccc(Cl)cc1)c1ccc(Cl)cc1
inactive: [6] 99 % of control | [7] 99 % of control | [8] 107 % of control

CC(C)CC(N)C(=O)NC(C(=O)O)c1ccc(O)cc1 (centres undefined) (H-Leu-[Hpg]-OH; configuration not given here)
inactive: [18] 103 % of control | [15] 101 % of control | [16] 102 % of control

CCOC(C)(OCC)N(C)C (tested in a mixture with another compound)
inactive: dose: 35.5 mg/kg/injection, schedule: Q01DX005 (ip), vehicle: saline with Tween-80 101 % of control | dose: 71.0 mg/kg/injection, schedule: Q01DX005 (ip), vehicle: saline with Tween-80 102 % of control | dose: 142.0 mg/kg/injection, schedule: Q01DX005 (ip), vehicle: saline with Tween-80 118 % of control

O=C1C=C(O)C(=O)C(CC2=C(O)C(=O)C=C(O)C2=O)=C1O
inactive: dose: 12.5 mg/kg/injection, schedule: Q01DX005 (ip), vehicle: Klucel (hydroxypropylcellulose) (HPC) 101 % of control and 90 % of control | dose: 25.0 mg/kg/injection, schedule: Q01DX005 (ip), vehicle: Klucel (hydroxypropylcellulose) (HPC) 86 % of control and 90 % of control and 95 % of control

CCOC(=O)N(NC(=O)Nc1ccccc1)C(c1ccccc1)c1ccccc1
inactive: dose: 75.0 mg/kg/injection, schedule: Q01DX009 (ip), vehicle: saline with Tween-80 94 % of control | dose: 150.0 mg/kg/injection, schedule: Q01DX009 (ip), vehicle: saline with Tween-80 94 % of control | dose: 300.0 mg/kg/injection, schedule: Q01DX009 (ip), vehicle: saline with Tween-80 98 % of control

COc1ccc(N=Nc2c(C)nn(C(=S)SC)c2C)cc1
inactive: [9] 100 % of control | [10] 105 % of control | [11] 109 % of control

BrC=C(Br)Br
inactive: [12] 104 % of control | [13] 100 % of control | [14] 95 % of control

COc1cc(C(c2cc3c(cc2O)OCO3)N2CCN(C(c3cc(OC)c(O)c(OC)c3)c3cc4c(cc3O)OCO4)CC2)cc(OC)c1O (centres undefined)
inactive: [6] 91 % of control | [7] 89 % of control | [8] 91 % of control

COc1ccc2c(c1)CN(Cc1ccccc1)CO2
inactive: [6] 104 % of control | [7] 105 % of control | [8] 102 % of control

Cc1ccc2c(CC(C)(C)[N+]3(C)CCCC3)ccc(C(C)C)cc1-2
inactive: dose: 100.0 mg/kg/injection, schedule: Q04DX002 (ip), vehicle: Klucel (hydroxypropylcellulose) (HPC) 114 % of control | dose: 200.0 mg/kg/injection, schedule: Q04DX002 (ip), vehicle: Klucel (hydroxypropylcellulose) (HPC) 112 % of control | dose: 400.0 mg/kg/injection, schedule: Q04DX002 (ip), vehicle: Klucel (hydroxypropylcellulose) (HPC) 105 % of control

O=C(CCl)NC(Cc1ccccc1)C(=O)O (centres undefined)
inactive: dose: 25.0 mg/kg/injection, schedule: Q01DX009 (ip), vehicle: saline with Tween-80 99 % of control | [18] 99 % of control and 89 % of control | [15] 100 % of control and 104 % of control | [16] 94 % of control | [17] 103 % of control

O=C(O)c1cc(S(=O)(=O)F)c(Cl)cc1Cl
inactive: [6] 119 % of control | [7] 104 % of control | [8] 104 % of control

COC(=O)[C@@H]1CCCN1C(=O)C(=O)N1CCC[C@H]1C(=O)OC
inactive: [1] 108 % of control | [2] 103 % of control | [3] 103 % of control

CN1CC(=O)[O][Sn]([CH3])([CH3])[O]C(=O)C1
inactive: dose: 7.5 mg/kg/injection, schedule: Q01DX005 (ip), vehicle: Klucel (hydroxypropylcellulose) (HPC) 119 % of control | dose: 15.0 mg/kg/injection, schedule: Q01DX005 (ip), vehicle: Klucel (hydroxypropylcellulose) (HPC) 122 % of control | dose: 15.0 mg/kg/injection, schedule: Q01DX005 (ip), vehicle: saline with Tween-80 101 % of control | dose: 30.0 mg/kg/injection, schedule: Q01DX005 (ip), vehicle: Klucel (hydroxypropylcellulose) (HPC) 122 % of control | dose: 30.0 mg/kg/injection, schedule: Q01DX005 (ip), vehicle: saline with Tween-80 116 % of control

COc1cc(C2c3cc4c(cc3OC(OC(C)=O)C2C)OCO4)cc(OC)c1OC (centres undefined)
inactive: [6] 96 % of control | [7] 94 % of control | [8] 105 % of control

Fc1cccc(Cl)c1C(Nc1ncccn1)Nc1ncccn1
inactive: dose: 60.0 mg/kg/injection, schedule: Q01DX005 (ip), vehicle: Klucel (hydroxypropylcellulose) (HPC) 100 % of control | dose: 120.0 mg/kg/injection, schedule: Q01DX005 (ip), vehicle: Klucel (hydroxypropylcellulose) (HPC) 94 % of control | dose: 240.0 mg/kg/injection, schedule: Q01DX005 (ip), vehicle: Klucel (hydroxypropylcellulose) (HPC) 88 % of control
